For assay [1], the system named is Giardia lamblia trophozoites, WB strain (ATCC #30957). The experiment in a line: 3H-thymidine incorporation drug sensitivity assay, Giardia lamblia WB strain (ATCC 30957). The format is cell-based. Particulars: for IC50: Giardia duodenalis; for efficacy against Giardia lamblia (in words): qualitative statements on the results.
Procedure: Giardia lamblia trophozoites were obtained from logarithmically growing stock cultures. Into the wells of a 96 well U-bottom tissue culture plate (Costar) was placed 100 μl of modified TYI-S-33 medium containing 2.5×10^4 trophozoites. The tissue culture plate was maintained in an anerobic environment by placing it inside a plastic box modified to allow nitrogen to be passed through the box via inlet and outlet tubing which could be clamped shut. Nitrogen was passed through the box for 2 minutes and the container was placed in a 37° C. incubator gassed with 5% CO2 in air.
Varying concentrations of ^3 H-thymidine (0.5, 1.0, 1.5 and 2.0 μCi/well) were added to wells containing 2.5×10^4 Giardia lamblia trophozoites at 2 hour intervals so that it might remain in contact with the trophozoites for 2 to 24 hours. After 24 hours of incubation, the cells were harvested with a multimash cell harvester by washing vigorously with ice-cold Hank's Balanced Salt Solution. Samples were collected on Whatman glass microfiber paper. the paper was air dried, samples were placed in 7 ml scintillation vials and the incorporation of ^3 H-thymidine was determined by liquid scintillation counting. Mean values were calculated from 5 replicates for each time point and concentration.
One hundred μl of modified TYI-S-33 medium containing 2.5×10^4trophozoites was placed into each well of a 96-well U-bottom plate. The plates were incubated under anaerobic conditions for 24 hours. After 24 hours, the compounds to be tested were prepared from the 2 mM stock solutions and 100 μl each solution was added to yield concentrations of 1, 10, 100 and 1000 μMin the wells. Ten μl of a 150 μCi/ml solution of ^3 H-thymidine (SA=10 Ci/mmole) in modified TYI-S-33 was added 6 hours after the addition of drug to yield a final concentration of 1.5 μCi/well. After an additional 18 hours of incubation the cells were harvested. Five replicates were run for each drug concentration and the mean values determined. Non-specific binding of the ^3 H-thymidine to the microfiber paper was determined through the use of control wells to which no organisms were added. The activities of compounds tested were determined by comparing the incorporation of ^ 3 H-thymidine in the wells to which the compounds were added to that of wells of drug free controls. The drug concentration required to inhibit 50% incorporation of ^3 H-thymidine (IC50) was determined (Chou, 1974).
Assay [2] relates to Giardia lamblia Stock BRI/83/HEPU/136. The conditions noted are these: Table IV; Stock BRI/83/HEPU/136 (Boreham et al., 1984); read-out: IC50 determined by 3H-thymidine incorporation; cited from earlier work.
Assay [3] deals with Giardia lamblia Stock BRIS/83/HEPU/120. Particulars: Table IV; Stock BRIS/83/HEPU/120 (Boreham et al., 1984); read-out: IC50 determined by 3H-thymidine incorporation; cited from earlier work.
Assay [4] has as its system Giardia lamblia Stock BRIS/82/HEPU/41. The conditions noted are these: Table IV; Stock BRIS/82/HEPU/41 (Boreham et al., 1984); read-out: IC50 determined by 3H-thymidine incorporation; cited from earlier work.
For assay [5], the system named is Giardia lamblia Stock BRIS/83/HEPU/106. The conditions noted are these: Table IV; Stock BRIS/83/HEPU/106 (Boreham et al., 1984); read-out: IC50 determined by 3H-thymidine incorporation; cited from earlier work.
Where [6] appears, read: ATCC30957, Table I, 50% inhibition of 3H-thymidine incorporation, WB strain, 24 h with drug, read-out: IC50, Giardia lamblia vs. para-amidines.
Where [7] appears, read: ATCC30957, Table III, 50% inhibition of 3H-thymidine incorporation, WB strain, 24 h with drug, read-out: IC50, Giardia lamblia vs. para-imidazolines.
[8] abbreviates: ATCC30957, read-out: IC50, Giardia lamblia vs. para-amidines.
Where [9] appears, read: ATCC30957, Table IV, Stock WB (ATCC 30957), read-out: IC50 determined by 3H-thymidine incorporation.
Where [10] appears, read: ATCC30957, Table II, 50% inhibition of 3H-thymidine incorporation, WB strain, 24 h with drug, read-out: IC50, Giardia lamblia vs. meta-amidines.

Structures can show the parent of a compound that is named as a salt. Where two headings read alike, the source gives them in different places.

As for `N=C(N)c1ccc(OCCOc2ccc(C(=N)N)cc2N)c(N)c1` [Example 1], the IC50 in assay [1] (setting [6]) is 1180 µM.
For `N=C(N)c1ccc(OCCCOc2ccc(C(=N)N)cc2N)c(N)c1` [Example 4], the IC50 in assay [1] (setting [6]) is 15.4 µM.
As to `COc1cc(C2=NCCN2)ccc1OCCCOc1ccc(C2=NCCN2)cc1OC` [Example 31], the IC50 in assay [1] (setting [7]) was found to be 25.4 µM. For the same molecule, in assay [1], the “efficacy against Giardia lamblia (in words)” value is recorded as “slightly less efficacious than the amidine counterpart of Example 5”.
Regarding `N=C(N)c1ccc(OCCCCOc2ccc(C(=N)N)cc2[N+](=O)[O-])c([N+](=O)[O-])c1` [Example 10], the IC50 in assay [1] (setting [8]) amounted to 53.2 µM.
On to `N=C(N)c1ccc(OCCCCCOc2ccc(C(=N)N)cc2)cc1` [Example 15, reference compound], for which, in assay [1] (setting [8]), the IC50 was determined as 76.5 µM. In assay [1], the “efficacy against Giardia lamblia (in words)” value is on record as “moderately effective”.
For the molecule `CN1CCN=C1c1ccc(OCCCCCOc2ccc(C3=NCCN3C)cc2)cc1` [Example 35], the IC50 in assay [1] (setting [7]) is 373 µM.
Consider `Cc1ncc([N+](=O)[O-])n1CCO` [Metronidazole], for which the IC50 in assay [2] is 2.21 µM; in assay [3] it was 1.08 µM; in assay [4] it was 2.14 µM; in assay [1] (setting [9]), 3.65 µM; in assay [5], 0.91 µM.
Take `c1cc(C2=NCCN2)ccc1OCCCCCOc1ccc(C2=NCCN2)cc1` [Example 34]: the IC50 in assay [1] (setting [7]) was 39.2 µM.
As to `COc1cc(C(=N)N)ccc1OCCCCCOc1ccc(C(=N)N)cc1OC` [Example 18], in assay [1] (setting [6]), the IC50 worked out at 24 µM.
`N=C(N)c1ccc(NCCCCNc2ccc(C(=N)N)cc2)cc1` [Example 13]: in assay [1] (setting [6]), the IC50 is 50.7 µM.
As for `N=C(N)c1ccc(NCCCCCNc2ccc(C(=N)N)cc2N)c(N)c1` [Example 21], in assay [1] (setting [6]), the IC50 turned out to be 48.6 µM.
In the case of `N=C(N)c1ccc(OCCCOc2ccc(C(=N)N)cc2)cc1` [Example 3], the IC50 in assay [1] (setting [6]) stood at 12.3 µM.
As to `CCN(CC)CCCC(C)Nc1c2ccc(Cl)cc2nc2ccc(OC)cc12` (centres unmarked) [Quinacrine . HCl], the IC50 in assay [2] was 4.02 µM; in assay [3] it was 1.59 µM; in assay [4], 1.09 µM; in assay [1] (setting [9]) it was 1.41 µM; in assay [5] it was 1.18 µM.
With `N=C(N)c1cccc(OCCCCOc2cccc(C(=N)N)c2)c1` [Example 28], the IC50 in assay [1] (setting [10]) is 106 µM.
`CN1CCN=C1c1ccc(OCCCCOc2ccc(C3=NCCN3C)cc2)cc1` [Example 33]: the IC50 in assay [1] (setting [7]) was determined as 346 µM.
As for `N=C(N)c1ccc(NCCCCCNc2ccc(C(=N)N)cc2[N+](=O)[O-])c([N+](=O)[O-])c1` [Example 22], the IC50 in assay [1] (setting [8]) stood at 29.9 µM.
Consider `COc1cc(C(=N)N)ccc1OCCCCOc1ccc(C(=N)N)cc1OC` [Example 11], for which, in assay [1] (setting [6]), the IC50 came out at 68.8 µM.
The same measure, in the same setting: then `N=C(N)c1ccc(NCCCNc2ccc(C(=N)N)cc2)cc1` [Example 6], with 68.2 µM.
Regarding `N=C(N)c1cccc(OCCCCCCOc2cccc(C(=N)N)c2)c1` [Example 30], the IC50 in assay [1] (setting [10]) came out at 84.2 µM.
On to `c1cc(C2=NCCN2)ccc1OCCCCOc1ccc(C2=NCCN2)cc1` [Example 32], for which, in assay [1] (setting [7]), the IC50 was 26 µM.
Consider `N=C(N)c1ccc(NCCCNc2ccc(C(=N)N)cc2[N+](=O)[O-])c([N+](=O)[O-])c1` [Example 7], for which the IC50 in assay [1] (setting [8]) came out at 84.2 µM.
On to `N=C(N)c1ccc(NCCCCCCNc2ccc(C(=N)N)cc2)cc1` [Example 25], for which the IC50 in assay [1] (setting [6]) was found to be 4.2 µM.
Still for that read-out and setting: the same measure for `N=C(N)c1ccc(NCCCCNc2ccc(C(=N)N)cc2N)c(N)c1` [Example 14]: 108 µM; for `N=C(N)c1ccc(NCCCCCNc2ccc(C(=N)N)cc2)cc1` [Example 20]: 40.6 µM.
As to `N=C(N)c1ccc(OCCCCCOc2ccc(C(=N)N)cc2[N+](=O)[O-])c([N+](=O)[O-])c1` [Example 17], in assay [1] (setting [8]), the IC50 came out at 26.1 µM.
Turning to `N=C(N)c1cccc(OCCCOc2cccc(C(=N)N)c2)c1` [Example 27], the IC50 in assay [1] (setting [10]) turned out to be 560 µM.
Consider `COc1cc(C2=NCCN2)ccc1OCCCCCOc1ccc(C2=NCCN2)cc1OC` [Example 36], for which the IC50 in assay [1] (setting [7]) was determined as 47.1 µM.
As to `N=C(N)c1ccc(NCCNc2ccc(C(=N)N)cc2N)c(N)c1` [Example 2], the IC50 in assay [1] (setting [6]) was determined as 744 µM.
On the same count and under the same terms, the same measure for `N=C(N)c1ccc(OCCCCCOc2ccc(C(=N)N)cc2Cl)c(Cl)c1` [Example 19]: 16.3 µM.
Turning to `O=C1OCCN1N=Cc1ccc([N+](=O)[O-])o1` [Furazolidone], the IC50 in assay [2] was 0.43 µM; in assay [3] it was 2.5 µM; in assay [4] it was 0.6 µM; in assay [1] (setting [9]), 1.9 µM; in assay [5], 0.74 µM.
As to `N=C(N)c1ccc(OCCCCCCOc2ccc(C(=N)N)cc2N)c(N)c1` [Example 24], the IC50 in assay [1] (setting [6]) came out at 38.7 µM.
Consider `N=C(N)c1ccc(NCCCCCCNc2ccc(C(=N)N)cc2N)c(N)c1` [Example 26], for which, in assay [1] (setting [6]), the IC50 came out at 21.9 µM.
On the same count and under the same terms, then `N=C(N)c1ccc(OCCCCOc2ccc(C(=N)N)cc2N)c(N)c1` [Example 9], with 96.8 µM; and `N=C(N)c1ccc(OCCCCOc2ccc(C(=N)N)cc2)cc1` [Example 8], with 61.6 µM.
The same measure, in the same setting: then `N=C(N)c1ccc(OCCCCCOc2ccc(C(=N)N)cc2N)c(N)c1` [Example 16], with 66.3 µM; and `COc1cc(C(=N)N)ccc1OCCCOc1ccc(C(=N)N)cc1OC` [Example 5], with 3.2 µM.
The same measure, in the same setting: the same measure for `N=C(N)c1ccc(OCCCCOc2ccc(C(=N)N)cc2Cl)c(Cl)c1` [Example 12]: 27.7 µM; for `N=C(N)c1ccc(OCCCCCCOc2ccc(C(=N)N)cc2)cc1` [Example 23]: 34.3 µM.
On to `N=C(N)c1cccc(OCCCCCOc2cccc(C(=N)N)c2)c1` [Example 29], for which the IC50 in assay [1] (setting [10]) turned out to be 55.8 µM.
